Reference: PubChem BioAssay AID220 (DTP/NCI, 2004)
“And” between values parts separate entries of the source, which are not always exact repeats. Equal values may be shown once. Inconclusive results are not listed.

System: CD8F1 mice, subcutaneous mammary adenocarcinoma, T/C%
Assay: NCI In Vivo Anticancer Drug Screen. Data for tumor model Mammary Adenocarcinoma CD8F1 (subcutaneous) in CD8F1
Details: higher = larger tumour
Summary of the method: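 Antitumor activity is assessed in transplantable-tumor mice by comparing the treated group with a vehicle-treated control group. Survival or tumor size serves as the measure, reported as T divided by C.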

[1] = endpoint: median tumor weight (est.), dose: 25.0 mg/kg/injection, schedule: Q07DX005 (ip), vehicle: suspension in saline
[2] = endpoint: median tumor weight (est.), dose: 50.0 mg/kg/injection, schedule: Q07DX005 (ip), vehicle: suspension in saline
[3] = endpoint: median tumor weight change, dose: 62.5 mg/kg/injection, schedule: Q01DX001 (ip), vehicle: saline with Tween-80
[4] = endpoint: median tumor weight change, dose: 125.0 mg/kg/injection, schedule: Q01DX001 (ip), vehicle: saline with Tween-80
[5] = endpoint: median tumor weight change, dose: 500.0 mg/kg/injection, schedule: Q01DX001 (ip), vehicle: saline with Tween-80
[6] = endpoint: median tumor weight (est.), dose: 6.25 mg/kg/injection, schedule: Q07DX005 (ip), vehicle: saline with Tween-80
[7] = endpoint: median tumor weight (est.), dose: 12.5 mg/kg/injection, schedule: Q07DX005 (ip), vehicle: saline with Tween-80
[8] = endpoint: median tumor weight change, dose: 250.0 mg/kg/injection, schedule: Q01DX001 (ip), vehicle: saline with Tween-80
[9] = endpoint: median tumor weight (est.), dose: 25.0 mg/kg/injection, schedule: Q07DX005 (ip), vehicle: saline with Tween-80
[10] = endpoint: median tumor weight (est.), dose: 50.0 mg/kg/injection, schedule: Q07DX005 (ip), vehicle: saline with Tween-80
[11] = endpoint: median tumor weight (est.), dose: 100.0 mg/kg/injection, schedule: Q07DX005 (ip), vehicle: saline with Tween-80
[12] = endpoint: median tumor weight (est.), dose: 200.0 mg/kg/injection, schedule: Q07DX005 (ip), vehicle: saline with Tween-80
[13] = endpoint: median tumor weight (est.), dose: 16.0 mg/kg/injection, schedule: Q07DX005 (ip), vehicle: saline

With c1ccc2c(c1)[As]=c1ccccc1=[As]2 (stereo unspecified) the T/C (endpoint: median tumor weight change, dose: 60.0 mg/kg/injection, schedule: Q01DX001 (ip), vehicle: saline with Tween-80) was 159 % of control, the T/C (endpoint: median tumor weight change, dose: 120.0 mg/kg/injection, schedule: Q01DX001 (ip), vehicle: saline with Tween-80) was 158 % of control and the T/C (endpoint: median tumor weight change, dose: 240.0 mg/kg/injection, schedule: Q01DX001 (ip), vehicle: saline with Tween-80) was 31 % of control.
In the case of COc1cc(C(=O)c2cc3c(cc2C)OCO3)cc(OC)c1OC, the T/C (endpoint: median tumor weight change, dose: 125.0 mg/kg/injection, schedule: Q01DX001 (ip), vehicle: Klucel (hydroxypropylcellulose) (HPC)) is reported as 59 % of control and 75 % of control, the T/C (endpoint: median tumor weight change, dose: 250.0 mg/kg/injection, schedule: Q01DX001 (ip), vehicle: Klucel (hydroxypropylcellulose) (HPC)) is reported as 47 % of control and 54 % of control and the T/C (endpoint: median tumor weight change, dose: 500.0 mg/kg/injection, schedule: Q01DX001 (ip), vehicle: Klucel (hydroxypropylcellulose) (HPC)) is reported as 70 % of control.
In the case of N=C(N)Sc1ccccn1, the T/C (endpoint: median tumor weight (est.), dose: 12.5 mg/kg/injection, schedule: Q07DX005 (ip), vehicle: suspension in saline) is reported as 156 % of control, the T/C [1] is reported as 113 % of control and the T/C [2] is reported as 103 % of control. For the same molecule, the T/C (endpoint: median tumor weight (est.), dose: 400.0 mg/kg/injection, schedule: Q07DX005 (ip), vehicle: suspension in saline) was 121 % of control.
CC(C)CCCCCCCCCCCCC(=O)NCC(=O)NC1C(O)C(O)C(Nc2ncnc3nc[nH]c23)OC1C(O)CO (stereo unspecified) was tested, and the T/C (endpoint: median tumor weight (est.), dose: 1.0 mg/kg/injection, schedule: Q07DX005 (ip), vehicle: Klucel (hydroxypropylcellulose) (HPC)) was 169 % of control and the T/C (endpoint: median tumor weight (est.), dose: 2.0 mg/kg/injection, schedule: Q07DX005 (ip), vehicle: Klucel (hydroxypropylcellulose) (HPC)) was 51 % of control and 76 % of control.
CNc1nc2c(N)ncnc2n1C1OC(CO)C(O)C1O (stereo unspecified) was tested, and the T/C [1] was 89 % of control and 91 % of control, the T/C [2] was 76 % of control and 96 % of control and the T/C (endpoint: median tumor weight (est.), dose: 100.0 mg/kg/injection, schedule: Q07DX005 (ip), vehicle: suspension in saline) was 29 % of control.
For CC(/C=N/N=C(N)N)=N\N=C(N)N, the T/C (endpoint: median tumor weight (est.), dose: 6.25 mg/kg/injection, schedule: Q07DX005 (ip), vehicle: saline) was 100 % of control, the T/C (endpoint: median tumor weight (est.), dose: 12.5 mg/kg/injection, schedule: Q07DX005 (ip), vehicle: saline) was 85 % of control and the T/C (endpoint: median tumor weight (est.), dose: 25.0 mg/kg/injection, schedule: Q07DX005 (ip), vehicle: saline) was 110 % of control. The T/C (endpoint: median tumor weight (est.), dose: 100.0 mg/kg/injection, schedule: Q07DX005 (ip), vehicle: saline) was 67 % of control.
In the case of O=NN(CCCl)C(=O)Oc1ccc(OC(=O)N(CCCl)N=O)cc1, the T/C (endpoint: median tumor weight change, dose: 25.0 mg/kg/injection, schedule: Q01DX001 (ip), vehicle: Klucel (hydroxypropylcellulose) (HPC)) is reported as 107 % of control and the T/C (endpoint: median tumor weight change, dose: 50.0 mg/kg/injection, schedule: Q01DX001 (ip), vehicle: Klucel (hydroxypropylcellulose) (HPC)) is reported as 75 % of control.
CN(C)P(=O)(Oc1ccccc1)N(C)C was tested, and the T/C [3] was 86 % of control, the T/C [4] was 63 % of control and the T/C [5] was 94 % of control.
O=C(C#Cc1ccccc1)c1ccccc1 was tested, and the T/C (endpoint: median tumor weight (est.), dose: 0.39 mg/kg/injection, schedule: Q07DX005 (ip), vehicle: saline with Tween-80) was 64 % of control, the T/C (endpoint: median tumor weight (est.), dose: 0.78 mg/kg/injection, schedule: Q07DX005 (ip), vehicle: saline with Tween-80) was 68 % of control and the T/C (endpoint: median tumor weight (est.), dose: 1.56 mg/kg/injection, schedule: Q07DX005 (ip), vehicle: saline with Tween-80) was 68 % of control. For the same molecule, the T/C (endpoint: median tumor weight (est.), dose: 3.12 mg/kg/injection, schedule: Q07DX005 (ip), vehicle: Klucel (hydroxypropylcellulose) (HPC)) was 47 % of control, the T/C (endpoint: median tumor weight (est.), dose: 3.12 mg/kg/injection, schedule: Q07DX005 (ip), vehicle: saline with Tween-80) was 53 % of control and the T/C [6] was 67 % of control. The T/C [7] was 46 % of control.
C=C(C)[C@]12CC(C)C34OC(/C=C\C=C\CCCCCCCCC)(O[C@@H]1[C@@H]3[C@@H]1O[C@]1(CO)[C@@H](O)[C@]1(O)C(=O)C(C)=C[C@@H]41)O2 (stereo partly specified) was tested, and the T/C (endpoint: median tumor weight (est.), dose: 0.37 mg/kg/injection, schedule: Q07DX002 (ip), vehicle: saline + alcohol) was 110 % of control, the T/C (endpoint: median tumor weight (est.), dose: 0.37 mg/kg/injection, schedule: Q07DX005 (ip), vehicle: saline + alcohol) was 82 % of control and the T/C (endpoint: median tumor weight (est.), dose: 0.75 mg/kg/injection, schedule: Q07DX002 (ip), vehicle: saline + alcohol) was 121 % of control. The T/C (endpoint: median tumor weight (est.), dose: 0.75 mg/kg/injection, schedule: Q07DX005 (ip), vehicle: saline + alcohol) was 116 % of control, the T/C (endpoint: median tumor weight (est.), dose: 1.5 mg/kg/injection, schedule: Q07DX002 (ip), vehicle: saline + alcohol) was 201 % of control and the T/C (endpoint: median tumor weight (est.), dose: 1.5 mg/kg/injection, schedule: Q07DX005 (ip), vehicle: saline + alcohol) was 72 % of control.
For CC(=O)ON(C(C)=O)c1ccc(C(N)=O)cc1, the T/C [3] was 68 % of control, the T/C [4] was 96 % of control and the T/C [8] was 64 % of control.
Cc1c2cc[n+](C)cc2c(C)c2c1[nH]c1ccc(O)cc12 was tested, and the T/C (endpoint: median tumor weight change, dose: 0.62 mg/kg/injection, schedule: Q01DX001 (ip), vehicle: saline) was 101 % of control, the T/C (endpoint: median tumor weight change, dose: 1.25 mg/kg/injection, schedule: Q01DX001 (ip), vehicle: saline) was 67 % of control and the T/C (endpoint: median tumor weight change, dose: 2.5 mg/kg/injection, schedule: Q01DX001 (ip), vehicle: saline) was 60 % of control.
For N#CC(=C1C=CC(=NO)C=C1)c1ccc(Cl)cc1, the T/C (endpoint: mean tumor weight, dose: 100.0 mg/kg/injection, schedule: Q07DX006 (ip), vehicle: saline with Tween-80) was 36 % of control and 52 % of control, the T/C (endpoint: mean tumor weight, dose: 200.0 mg/kg/injection, schedule: Q07DX006 (ip), vehicle: saline with Tween-80) was 19 % of control and 26 % of control and the T/C (endpoint: mean tumor weight, dose: 400.0 mg/kg/injection, schedule: Q07DX006 (ip), vehicle: saline with Tween-80) was 7 % of control and 10 % of control. For the same molecule, the T/C [9] was 98 % of control, the T/C [10] was 63 % of control and the T/C [11] was 58 % of control. For the same molecule, the T/C [12] was 57 % of control, the T/C (endpoint: median tumor weight (est.), dose: 400.0 mg/kg/injection, schedule: Q07DX005 (ip), vehicle: saline with Tween-80) was 36 % of control and the T/C [3] was 92 % of control. The T/C [4] was 88 % of control, the T/C [8] was 70 % of control and the T/C [5] was 28 % of control. The T/C (endpoint: median tumor weight change, dose: 1000.0 mg/kg/injection, schedule: Q01DX001 (ip), vehicle: saline with Tween-80) was 26 % of control.
For O=P(O)(NCCCl)NCCCl, the T/C (endpoint: median tumor weight change, dose: 25.0 mg/kg/injection, schedule: Q01DX001 (ip), vehicle: saline) was 49 % of control, the T/C (endpoint: median tumor weight change, dose: 50.0 mg/kg/injection, schedule: Q01DX001 (ip), vehicle: saline) was 97 % of control and the T/C (endpoint: median tumor weight change, dose: 50.0 mg/kg/injection, schedule: Q01DX001 (ip), vehicle: suspension in saline) was -39 % of control. For the same molecule, the T/C (endpoint: median tumor weight change, dose: 100.0 mg/kg/injection, schedule: Q01DX001 (ip), vehicle: saline) was 41 % of control and the T/C (endpoint: median tumor weight change, dose: 200.0 mg/kg/injection, schedule: Q01DX001 (ip), vehicle: saline) was -56 % of control.
With CC(=S)NC(O)C(=O)c1ccccc1 (stereo unspecified) the T/C [9] was 79 % of control, the T/C [11] was 96 % of control and the T/C [12] was 111 % of control.
For CNNCc1ccc(C(=O)NC(C)C)cc1, the T/C [13] was 207 % of control and 101 % of control.
CC[C@H]1CN2CCc3cc(OC)c(OC)cc3[C@@H]2C[C@@H]1C[C@H]1NCCc2cc(O)c(OC)cc21 was tested, and the T/C (endpoint: median tumor weight (est.), dose: 2.0 mg/kg/injection, schedule: Q07DX005 (ip), vehicle: saline) was 67 % of control, the T/C (endpoint: median tumor weight (est.), dose: 4.0 mg/kg/injection, schedule: Q07DX005 (ip), vehicle: saline) was 95 % of control and the T/C (endpoint: median tumor weight (est.), dose: 8.0 mg/kg/injection, schedule: Q07DX005 (ip), vehicle: saline) was 92 % of control. For the same molecule, the T/C [13] was 47 % of control.
In the case of CC(=O)C(=O)O.CC(=O)C(=O)O.[NH-]C1CCCCC1[NH-].[Pt+2] (stereo unspecified), the T/C (endpoint: median tumor weight change, dose: 15.0 mg/kg/injection, schedule: Q01DX001 (ip), vehicle: dextrose) is reported as 70 % of control, the T/C (endpoint: median tumor weight change, dose: 30.0 mg/kg/injection, schedule: Q01DX001 (ip), vehicle: dextrose) is reported as 79 % of control and the T/C (endpoint: median tumor weight change, dose: 60.0 mg/kg/injection, schedule: Q01DX001 (ip), vehicle: dextrose) is reported as 51 % of control. For the same molecule, the T/C (endpoint: median tumor weight change, dose: 62.5 mg/kg/injection, schedule: Q01DX001 (ip), vehicle: dextrose) was -38 % of control and the T/C (endpoint: median tumor weight change, dose: 120.0 mg/kg/injection, schedule: Q01DX001 (ip), vehicle: dextrose) was 45 % of control.
In the case of CC(=O)O[C@@H]1[C@@H](O)C2=C3[C@]4(C)[C@@H]1C(C)(C)C(=O)C[C@@H]4[C@]3(O)[C@H](OC(C)=O)[C@@]1(C[C@@H]1C)C2=O, the T/C (endpoint: median tumor weight (est.), dose: 6.25 mg/kg/injection, schedule: Q07DX005 (ip), vehicle: distilled water + Tween-80) is reported as 98 % of control, the T/C [6] is reported as 112 % of control and the T/C (endpoint: median tumor weight (est.), dose: 12.5 mg/kg/injection, schedule: Q07DX005 (ip), vehicle: distilled water + Tween-80) is reported as 151 % of control. For the same molecule, the T/C [7] was 117 % of control, the T/C (endpoint: median tumor weight (est.), dose: 25.0 mg/kg/injection, schedule: Q07DX005 (ip), vehicle: distilled water + Tween-80) was 87 % of control and the T/C (endpoint: median tumor weight (est.), dose: 50.0 mg/kg/injection, schedule: Q07DX005 (ip), vehicle: distilled water + Tween-80) was 94 % of control. For the same molecule, the T/C [10] was 72 % of control.
